pEC50: −log10 of the molar value.
Experiments:
Format in all cases: cell-based
[1] = target: T1, heteromeric KV7.2/KV7.3 channels (KCNQ2, KCNQ3) (Homo sapiens, UniProt O43525+O43526); test: Automated patch-clamp (Sophion Qube 384) potency assay against KV7.2/KV7.3 channels; conditions: CHO-K1/Kv7.2/Kv7.3 cells; for pEC50: EC50 from concentration-response of shift in Vhalf, 10 concentrations up to 30 μM, read-out: Kv7.2/7.3 EC50; for Kv7.2/7.3 ΔV1/2: maximal shift in the Vhalf from the top of the curve
T1 construct: expressed in transfected cells; host or cells: CHO-K1
Procedure, shortened: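 Activator potency: EC50 from 4-parameter logistic fit of mean Vhalf shift across ten 1-in-3 dilutions starting at 30 μM (n=4), with DMSO (typically 0.3%) control. Currents recorded by leak-subtracted whole-cell clamp of stable CHO-K1 KV7.2/KV7.3 cells, held at −80 mV, stepped −100 to +20 mV then 0 mV tails.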

[2] = target: T2, homomeric KV7.4 channel (KCNQ4) (Homo sapiens, UniProt P56696); test: Automated patch-clamp (Qube) counter-screening assay against KV7.4 channel; conditions: CHO-K1 cells expressing KV7.4; class by maximal shift in the Vhalf at 30 μM
T2 construct: host or cells: CHO-K1
Procedure, shortened: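 EC50 and maximal shift in half-activation voltage come from 4-parameter logistic fits of mean Vhalf shifts. The series had ten 1-in-3 concentrations, highest 30 μM, each tested in quadruplicate. Recordings used automated Qube patch clamp on a stable CHO-K1 line expressing KCNQ4, and selectivity was judged from the 30 μM Vhalf shift.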

[3] = target: T3, heteromeric KV7.3/KV7.5 channel (KCNQ3, KCNQ5) (Homo sapiens, UniProt O43525+Q9NR82); test: Automated patch-clamp counter-screening against KV7.3/KV7.5 channel; conditions: HEK293 cells expressing Kv7.3/KV7.5; class by maximal shift in the Vhalf at 30 μM
T3 construct: host or cells: HEK293
Procedure, shortened: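 Potency came from a 4-parameter logistic fit of mean voltage-of-half-activation shifts, yielding EC50 and maximal shift; selectivity was judged on the shift at 30 μM. Compounds were applied at ten 3-fold dilutions from 30 μM in quadruplicate to HEK293 cells stably carrying Kv7.3 with tet-inducible Kv7.5.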

pEC50 [1]	Kv7.2/7.3 ΔV1/2 [1]	Compound	Kv7.4 selectivity criteria [2]	Kv7.3/7.5 selectivity criteria [3]
6.32	21.89 mV	O=C(NCc1ccnc(OCC(F)(F)F)c1)N[C@@H]1CCc2ccccc2C1 [Compound 115]	A (Selective compounds showed Kv7.4 and/or Kv7.3/7.5 ΔV1/2 equal to or lower than 15 mV (letter A in table 3))	A (Selective compounds showed Kv7.4 and/or Kv7.3/7.5 ΔV1/2 equal to or lower than 15 mV (letter A in table 3))
5.80	31.15 mV	Cc1cccc2c1C(NC(=O)NCc1ccnc(OCC(F)(F)F)c1)CC2 (stereo not shown) [Compound 116]	A (Selective compounds showed Kv7.4 and/or Kv7.3/7.5 ΔV1/2 equal to or lower than 15 mV (letter A in table 3))	B (Non-selective compounds showed Kv7.4 and/or Kv7.3/7.5 ΔV1/2 higher than 15 mV (letter B in table 3))
5.72	20.5 mV	O=C(NCc1ccnc(OCC(F)(F)F)c1)NC1CCc2ccc(C(F)(F)F)cc21 (stereo not shown) [Compound 117]	A (Selective compounds showed Kv7.4 and/or Kv7.3/7.5 ΔV1/2 equal to or lower than 15 mV (letter A in table 3))	A (Selective compounds showed Kv7.4 and/or Kv7.3/7.5 ΔV1/2 equal to or lower than 15 mV (letter A in table 3))
5.81	41.97 mV	O=C(NCc1ccnc(OCC(F)(F)F)c1)N[C@@H]1CCc2c(Cl)cccc21 [Compound 118]	B (Non-selective compounds showed Kv7.4 and/or Kv7.3/7.5 ΔV1/2 higher than 15 mV (letter B in table 3))	B (Non-selective compounds showed Kv7.4 and/or Kv7.3/7.5 ΔV1/2 higher than 15 mV (letter B in table 3))
5.97	36.41 mV	O=C(NCc1ccnc(OCC(F)(F)F)c1)N[C@@H]1CCc2cc(F)c(F)cc21 [Compound 119]	A (Selective compounds showed Kv7.4 and/or Kv7.3/7.5 ΔV1/2 equal to or lower than 15 mV (letter A in table 3))	B (Non-selective compounds showed Kv7.4 and/or Kv7.3/7.5 ΔV1/2 higher than 15 mV (letter B in table 3))
6.56	16.57 mV	O=C(NCc1ccnc(OCC(F)(F)F)c1)N[C@H]1CCc2cc(F)c(F)cc21 [Compound 120]	B (Non-selective compounds showed Kv7.4 and/or Kv7.3/7.5 ΔV1/2 higher than 15 mV (letter B in table 3))	A (Selective compounds showed Kv7.4 and/or Kv7.3/7.5 ΔV1/2 equal to or lower than 15 mV (letter A in table 3))
5.81	38.54 mV	O=C(NCc1ccnc(OCC(F)(F)F)c1)N[C@@H]1CCc2c(Cl)cccc21 [Compound 121]	B (Non-selective compounds showed Kv7.4 and/or Kv7.3/7.5 ΔV1/2 higher than 15 mV (letter B in table 3))	B (Non-selective compounds showed Kv7.4 and/or Kv7.3/7.5 ΔV1/2 higher than 15 mV (letter B in table 3))
5.57	26.22 mV	COc1ccc2c(c1)CCC2NC(=O)NCc1ccnc(OCC(F)(F)F)c1 (stereo not shown) [Compound 122]	A (Selective compounds showed Kv7.4 and/or Kv7.3/7.5 ΔV1/2 equal to or lower than 15 mV (letter A in table 3))	A (Selective compounds showed Kv7.4 and/or Kv7.3/7.5 ΔV1/2 equal to or lower than 15 mV (letter A in table 3))
5.18	25.23 mV	O=C(NCc1ccnc(OCC(F)(F)F)c1)N[C@H]1c2ccccc2C[C@@H]1O [Compound 123]	A (Selective compounds showed Kv7.4 and/or Kv7.3/7.5 ΔV1/2 equal to or lower than 15 mV (letter A in table 3))	A (Selective compounds showed Kv7.4 and/or Kv7.3/7.5 ΔV1/2 equal to or lower than 15 mV (letter A in table 3))
4.93	18.78 mV	CC(F)(F)c1cc(CNC(=O)N[C@@H]2CCc3ccc(F)cc32)ccn1 [Compound 124]	A (Selective compounds showed Kv7.4 and/or Kv7.3/7.5 ΔV1/2 equal to or lower than 15 mV (letter A in table 3))	A (Selective compounds showed Kv7.4 and/or Kv7.3/7.5 ΔV1/2 equal to or lower than 15 mV (letter A in table 3))
6.17	18.25 mV	COc1cc2c(cc1F)CCC2NC(=O)NCc1ccnc(OCC(F)(F)F)c1 (stereo not shown) [Compound 125]	A (Selective compounds showed Kv7.4 and/or Kv7.3/7.5 ΔV1/2 equal to or lower than 15 mV (letter A in table 3))	A (Selective compounds showed Kv7.4 and/or Kv7.3/7.5 ΔV1/2 equal to or lower than 15 mV (letter A in table 3))
5.51	42.02 mV	Cc1ccc2c(c1)[C@H](NC(=O)NCc1ccnc(OCC(F)(F)F)c1)CC2 [Compound 126]	B (Non-selective compounds showed Kv7.4 and/or Kv7.3/7.5 ΔV1/2 higher than 15 mV (letter B in table 3))	B (Non-selective compounds showed Kv7.4 and/or Kv7.3/7.5 ΔV1/2 higher than 15 mV (letter B in table 3))
5.80	30.45 mV	O=C(NCc1ccnc(OCC(F)(F)F)c1)N[C@@H]1CCc2cc(Cl)ccc21 [Compound 127]	B (Non-selective compounds showed Kv7.4 and/or Kv7.3/7.5 ΔV1/2 higher than 15 mV (letter B in table 3))	B (Non-selective compounds showed Kv7.4 and/or Kv7.3/7.5 ΔV1/2 higher than 15 mV (letter B in table 3))
6.40	15.68 mV	COc1ccc2c(c1)[C@@H](NC(=O)NCc1ccnc(OCC(F)(F)F)c1)CC2 [Compound 128]	A (Selective compounds showed Kv7.4 and/or Kv7.3/7.5 ΔV1/2 equal to or lower than 15 mV (letter A in table 3))	A (Selective compounds showed Kv7.4 and/or Kv7.3/7.5 ΔV1/2 equal to or lower than 15 mV (letter A in table 3))
6.03	14.07 mV	Cc1ccc2c(c1)CCC2NC(=O)NCc1ccnc(OCC(F)(F)F)c1 (stereo not shown) [Compound 129]	A (Selective compounds showed Kv7.4 and/or Kv7.3/7.5 ΔV1/2 equal to or lower than 15 mV (letter A in table 3))	A (Selective compounds showed Kv7.4 and/or Kv7.3/7.5 ΔV1/2 equal to or lower than 15 mV (letter A in table 3))
5.79	40.52 mV	O=C(NCc1ccnc(OCC(F)(F)F)c1)N[C@@H]1CCOc2ccccc21 [Compound 130]	B (Non-selective compounds showed Kv7.4 and/or Kv7.3/7.5 ΔV1/2 higher than 15 mV (letter B in table 3))	B (Non-selective compounds showed Kv7.4 and/or Kv7.3/7.5 ΔV1/2 higher than 15 mV (letter B in table 3))
6.12	22.47 mV	O=C(NCc1ccnc(OCC(F)(F)F)c1)Nc1cccc2c1OCC2 [Compound 131]	B (Non-selective compounds showed Kv7.4 and/or Kv7.3/7.5 ΔV1/2 higher than 15 mV (letter B in table 3))	A (Selective compounds showed Kv7.4 and/or Kv7.3/7.5 ΔV1/2 equal to or lower than 15 mV (letter A in table 3))
5.49	19.47 mV	O=C(NCc1ccnc(OCC(F)(F)F)c1)N[C@H]1CCOc2ccccc21 [Compound 132]	A (Selective compounds showed Kv7.4 and/or Kv7.3/7.5 ΔV1/2 equal to or lower than 15 mV (letter A in table 3))	A (Selective compounds showed Kv7.4 and/or Kv7.3/7.5 ΔV1/2 equal to or lower than 15 mV (letter A in table 3))
5.55	34.47 mV	O=C(NCc1ccnc(OCC(F)(F)F)c1)N[C@@H]1COc2ccccc21 [Compound 133]	A (Selective compounds showed Kv7.4 and/or Kv7.3/7.5 ΔV1/2 equal to or lower than 15 mV (letter A in table 3))	B (Non-selective compounds showed Kv7.4 and/or Kv7.3/7.5 ΔV1/2 higher than 15 mV (letter B in table 3))
5.51	43.25 mV	COc1ccc2c(c1)[C@H](NC(=O)NCc1ccnc(OCC(F)(F)F)c1)CC2 [Compound 134]	A (Selective compounds showed Kv7.4 and/or Kv7.3/7.5 ΔV1/2 equal to or lower than 15 mV (letter A in table 3))	B (Non-selective compounds showed Kv7.4 and/or Kv7.3/7.5 ΔV1/2 higher than 15 mV (letter B in table 3))
6.45	22.58 mV	O=C(NCc1ccnc(OCC(F)(F)F)c1)NC1CCc2c(F)cc(F)cc21 (stereo not shown) [Compound 135]	A (Selective compounds showed Kv7.4 and/or Kv7.3/7.5 ΔV1/2 equal to or lower than 15 mV (letter A in table 3))	A (Selective compounds showed Kv7.4 and/or Kv7.3/7.5 ΔV1/2 equal to or lower than 15 mV (letter A in table 3))
6.25	16.11 mV	CC1Cc2cccc(NC(=O)NCc3ccnc(OCC(F)(F)F)c3)c2O1 (stereo not shown) [Compound 136]	A (Selective compounds showed Kv7.4 and/or Kv7.3/7.5 ΔV1/2 equal to or lower than 15 mV (letter A in table 3))	A (Selective compounds showed Kv7.4 and/or Kv7.3/7.5 ΔV1/2 equal to or lower than 15 mV (letter A in table 3))

Reference: US20260207563A1, “UREA COMPOUNDS AS ACTIVATORS OF POTASSIUM CHANNELS KV7.2/7.3 USEFUL IN THE TREATMENT OF CNS AND PNS DISORDERS” (ANGELINI PHARMA S.P.A., priority 2022, published 2026)
